Source: ChEMBL document CHEMBL1201862, “PubChem BioAssay data set” (2004)
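Step 1: Grow cells in 96-well plates. Step 2: Expose to compound for 48 hours at 5 concentrations. Step 3: Interpolate endpoints linearly; if unreached, use highest concentration. GI50 is the concentration that inhibits growth by half.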 Active and inactive are the calls of the source. Rule as the data show it: active = GI50 up to about 1.1 µM and inactive = higher.

Key:
Experiment in all cases: growth of human tumour cells (NCI), 48 h
UACC-257 = tested on: UACC-257
NCI-H226 = tested on: NCI-H226
KM12 = tested on: KM12
786-0 = tested on: 786-0
SN12C = tested on: SN12C
Malme-3M = tested on: Malme-3M
CCRF-CEM = tested on: CCRF-CEM
CAKI-1 = tested on: CAKI-1
NCI-H460 = tested on: NCI-H460
SNB-75 = tested on: SNB-75
UO-31 = tested on: UO-31
HT-29 = tested on: HT-29
NCI-H522 = tested on: NCI-H522
SF-295 = tested on: SF-295
K562 = tested on: K562
EKVX = tested on: EKVX
RPMI-8226 = tested on: RPMI-8226

Measured: GI50

O=C(NCCCCCCCCCCCCNC(=O)c1cnc2ccccc2n1)c1cnc2ccccc2n1
inactive: UACC-257 47.8 µM | NCI-H226 48 µM | KM12 > 100 µM | 786-0 31.7 µM | SN12C 66.1 µM | Malme-3M > 100 µM | CCRF-CEM > 100 µM | CAKI-1 > 100 µM | NCI-H460 48.1 µM | SNB-75 20.8 µM | UO-31 23.9 µM | HT-29 > 100 µM | NCI-H522 19 µM | SF-295 37 µM | K562 > 100 µM | EKVX > 100 µM | RPMI-8226 23.4 µM

CCOC(=O)/C=C/c1ccccn1
inactive: UACC-257 > 100 µM | NCI-H226 > 100 µM | KM12 > 100 µM | 786-0 > 100 µM | SN12C > 100 µM | Malme-3M > 100 µM | CCRF-CEM > 100 µM | CAKI-1 > 100 µM | NCI-H460 > 100 µM | SNB-75 > 100 µM | UO-31 > 100 µM | HT-29 > 100 µM | NCI-H522 > 100 µM | SF-295 > 100 µM | K562 > 100 µM | EKVX > 100 µM | RPMI-8226 > 100 µM

O=C1CCCCC1C1(O)C(=O)Nc2cc(F)ccc21 (stereo not given)
inactive: UACC-257 > 100 µM | NCI-H226 > 100 µM | KM12 > 100 µM | 786-0 > 100 µM | SN12C > 100 µM | Malme-3M > 100 µM | CCRF-CEM > 100 µM | CAKI-1 > 100 µM | NCI-H460 > 100 µM | SNB-75 > 100 µM | UO-31 > 100 µM | HT-29 > 100 µM | NCI-H522 > 100 µM | SF-295 > 100 µM | K562 > 100 µM | EKVX > 100 µM | RPMI-8226 > 100 µM

CC(N)Cc1ccc(Cl)c(Cl)c1 (stereo not given)
inactive: UACC-257 22.9 µM | NCI-H226 33.6 µM | KM12 10.6 µM | 786-0 41.5 µM | SN12C 30.2 µM | Malme-3M 19.6 µM | CCRF-CEM 28.2 µM | CAKI-1 23.6 µM | NCI-H460 30.1 µM | SNB-75 23.3 µM | UO-31 19.8 µM | HT-29 24.3 µM | NCI-H522 29.6 µM | SF-295 > 52.2 µM | K562 21.7 µM | EKVX 41.5 µM | RPMI-8226 34.8 µM

CCOC1C(Br)Cn2c(=O)c3cc4ccccc4cc3c(=O)n2C1C (stereo not given)
inactive: UACC-257 60.4 µM | NCI-H226 > 100 µM | KM12 > 100 µM | 786-0 > 100 µM | SN12C > 100 µM | Malme-3M > 100 µM | CCRF-CEM 50.1 µM | CAKI-1 55.1 µM | NCI-H460 40.3 µM | SNB-75 39.4 µM | UO-31 78.5 µM | HT-29 27.5 µM | NCI-H522 1.67 µM | SF-295 71.8 µM | K562 37.6 µM | EKVX 47.6 µM | RPMI-8226 33.8 µM
